Activity calls are given as the source filed them. The rule behind the calls is not given here.
Tests used:
MCF7 = test: Antiproliferative activity against androgen-positive human MCF7 cells assessed as cell growth inhibition measured after 72 hrs by SRB assay; format: functional, cell-based; details: MCF7, 72 h
[1] = molecular target: T1, Androgen receptor (Homo sapiens) (UniProt P10275); test: Binding affinity to androgen receptor LBD (unknown origin) at 10 uM incubated for 4 hrs under dark by fluorescence polarization based binding assay relative to R1881
T1 sequence (whole entry): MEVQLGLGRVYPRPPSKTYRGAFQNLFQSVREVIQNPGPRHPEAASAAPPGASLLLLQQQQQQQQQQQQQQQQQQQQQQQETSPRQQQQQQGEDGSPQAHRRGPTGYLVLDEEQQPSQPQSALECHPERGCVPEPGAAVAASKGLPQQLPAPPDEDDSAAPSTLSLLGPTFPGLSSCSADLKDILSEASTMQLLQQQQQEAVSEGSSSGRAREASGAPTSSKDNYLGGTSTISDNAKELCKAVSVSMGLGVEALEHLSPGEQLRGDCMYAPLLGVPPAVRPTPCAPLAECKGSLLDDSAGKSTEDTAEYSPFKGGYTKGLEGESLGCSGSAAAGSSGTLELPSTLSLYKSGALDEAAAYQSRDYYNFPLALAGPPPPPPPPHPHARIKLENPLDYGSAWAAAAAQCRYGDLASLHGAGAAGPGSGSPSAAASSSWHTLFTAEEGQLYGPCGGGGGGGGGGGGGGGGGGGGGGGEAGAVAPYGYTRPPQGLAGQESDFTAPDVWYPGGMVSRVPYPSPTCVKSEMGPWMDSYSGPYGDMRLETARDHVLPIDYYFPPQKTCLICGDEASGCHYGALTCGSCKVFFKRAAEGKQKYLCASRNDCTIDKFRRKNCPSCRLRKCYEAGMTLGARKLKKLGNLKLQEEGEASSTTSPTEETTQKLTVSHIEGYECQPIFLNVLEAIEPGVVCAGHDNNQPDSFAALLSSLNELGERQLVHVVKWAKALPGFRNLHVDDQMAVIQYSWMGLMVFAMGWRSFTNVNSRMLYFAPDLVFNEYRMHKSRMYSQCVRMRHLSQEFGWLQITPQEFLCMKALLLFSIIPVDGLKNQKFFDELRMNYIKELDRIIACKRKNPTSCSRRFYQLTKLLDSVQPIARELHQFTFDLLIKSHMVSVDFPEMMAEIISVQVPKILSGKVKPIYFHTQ

LNCaP C4-2B = test: Antiproliferative activity against androgen-sensitive positive human LNCaP C4-2B cells assessed as cell growth inhibition measured after 72 hrs by SRB assay; format: functional, cell-based
SGC-7901 = test: Antiproliferative activity against androgen-positive human SGC-7901 cells assessed as cell growth inhibition measured after 72 hrs by SRB assay; format: functional, cell-based; details: SGC-7901, 72 h
LNCaP [2] = test: Induction of cell cycle arrest in human LNCaP cells assessed as accumulation at G1 phase at 1 micromol/L after 24 hrs by RNase A/PI-staining based flow cytometric analysis (reference value: 47.99%); format: functional; details: dose 1 µmol/L, at 1 µM
LNCaP [3] = test: Induction of cell cycle arrest in human LNCaP cells assessed as accumulation at S phase at 10 micromol/L after 24 hrs by RNase A/PI-staining based flow cytometric analysis (reference value: 20.69%); format: functional; details: dose 10 µmol/L, at 10 µM
LNCaP [4] = test: Induction of cell cycle arrest in human LNCaP cells assessed as accumulation at G2 phase at 10 micromol/L after 24 hrs by RNase A/PI-staining based flow cytometric analysis (reference value: 20.87%); format: functional; details: dose 10 µmol/L, at 10 µM
LNCaP [5] = test: Induction of apoptosis in human LNCaP cells assessed as necrotic cells level at 1 micromol/L incubated for 24 hrs by Annexin V/PI staining staining based flow cytometry (reference value: 0.694%); format: functional; details: dose 1 µmol/L, at 1 µM
LNCaP [6] = test: Induction of apoptosis in human LNCaP cells assessed as early apoptotic cells level at 1 micromol/L incubated for 24 hrs by Annexin V/PI staining staining based flow cytometry (reference value: 2.09%); format: functional; details: dose 1 µmol/L, at 1 µM
LNCaP [7] = test: Induction of apoptosis in human LNCaP cells assessed as necrotic cells level at 2 micromol/L incubated for 24 hrs by Annexin V/PI staining staining based flow cytometry (reference value: 0.694%); format: functional; details: dose 2 µmol/L, at 2 µM
LNCaP [8] = test: Induction of apoptosis in human LNCaP cells assessed as late cells level at 2 micromol/L incubated for 24 hrs by Annexin V/PI staining staining based flow cytometry (reference value: 0.940%); format: functional; details: dose 2 µmol/L, at 2 µM
LNCaP [9] = test: Induction of apoptosis in human LNCaP cells assessed as viable cells level at 2 micromol/L incubated for 24 hrs by Annexin V/PI staining staining based flow cytometry (reference value: 96.3%); format: functional; details: dose 2 µmol/L, at 2 µM
LNCaP [10] = test: Induction of apoptosis in human LNCaP cells assessed as early apoptotic cells level at 2 micromol/L incubated for 24 hrs by Annexin V/PI staining staining based flow cytometry (reference value: 2.09%); format: functional; details: dose 2 µmol/L, at 2 µM
LNCaP [11] = test: Induction of apoptosis in human LNCaP cells assessed as necrotic cells level at 10 micromol/L incubated for 24 hrs by Annexin V/PI staining staining based flow cytometry (reference value: 0.694%); format: functional; details: dose 10 µmol/L, at 10 µM
[12] = molecular target: T1, Androgen receptor (Homo sapiens); test: Selective androgen receptor degradation activity at androgen receptor in human LNCaP cells assessed as down regulation of protein level at 1 uM after 24 hrs by Western blot analysis; format: cell-based
[13] = molecular target: Transmembrane protease serine 2 (Homo sapiens) (UniProt O15393); test: Induction of downregulation of TMPRSS2 (unknown orgin) human LNCaP cells at 1 uM after 24 hrs by Western blot analysis
Chain of Transmembrane protease serine 2 (Homo sapiens) (O15393 1-255 limits assumed): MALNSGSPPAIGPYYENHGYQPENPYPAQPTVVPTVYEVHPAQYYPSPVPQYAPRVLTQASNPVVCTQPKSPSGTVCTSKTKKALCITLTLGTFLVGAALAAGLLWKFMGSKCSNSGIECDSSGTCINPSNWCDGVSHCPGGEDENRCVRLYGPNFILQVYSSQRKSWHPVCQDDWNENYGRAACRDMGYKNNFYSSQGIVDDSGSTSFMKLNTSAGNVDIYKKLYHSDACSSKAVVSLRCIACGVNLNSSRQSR
Chain of Transmembrane protease serine 2 (Homo sapiens) (O15393 256-492 limits assumed): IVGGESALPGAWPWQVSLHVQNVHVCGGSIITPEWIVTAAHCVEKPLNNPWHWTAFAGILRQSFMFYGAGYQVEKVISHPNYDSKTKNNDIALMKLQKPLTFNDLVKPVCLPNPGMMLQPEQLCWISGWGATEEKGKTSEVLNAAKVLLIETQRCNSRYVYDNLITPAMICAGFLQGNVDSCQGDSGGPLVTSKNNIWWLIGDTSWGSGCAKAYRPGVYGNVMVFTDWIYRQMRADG

[14] = molecular target: T1, Androgen receptor (Homo sapiens); test: Selective androgen receptor degradation activity at androgen receptor in human LNCaP cells assessed as down regulation of protein level at 2 uM after 24 hrs by Western blot analysis; format: cell-based
[15] = molecular target: Transmembrane protease serine 2 (Homo sapiens) (UniProt O15393); test: Induction of downregulation of TMPRSS2 (unknown orgin) human LNCaP cells at 2 uM after 24 hrs by Western blot analysis
[16] = molecular target: T1, Androgen receptor (Homo sapiens); test: Selective androgen receptor degradation activity at androgen receptor in human LNCaP cells assessed as down regulation of protein level at 10 uM after 24 hrs by Western blot analysis; format: cell-based
[17] = molecular target: T1, Androgen receptor (Homo sapiens); test: Selective androgen receptor degradation activity at androgen receptor in human LNCaP cells assessed as down regulation of protein level at 10 uM after 72 hrs by Western blot analysis; format: cell-based
[18] = molecular target: T1, Androgen receptor (Homo sapiens); test: Selective androgen receptor degradation activity at androgen receptor in human LNCaP cells assessed as down regulation of protein level at 10 uM after 24 hrs in presence of MG132 by Western blot analysis; format: cell-based
LNCaP [19] = test: Induction of apoptosis in human LNCaP cells assessed as total apoptotic cells at 10 uM incubated for 24 hrs by Annexin V/PI staining staining based flow cytometry (reference value: 2.76%); format: functional
[20] = molecular target: T1, Androgen receptor (Homo sapiens); test: Selective androgen receptor degradation activity at androgen receptor in human LNCaP cells assessed as down regulation of protein level at 10 uM after 24 hrs in presence of E-64 by Western blot analysis; format: cell-based
[21] = molecular target: Prostate-specific antigen (Homo sapiens) (UniProt P07288); test: Induction of downregulation of PSA (unknown orgin) human LNCaP cells at 10 uM after 24 hrs by Western blot analysis
Chain of Prostate-specific antigen (Homo sapiens) (P07288 whole entry, looked up): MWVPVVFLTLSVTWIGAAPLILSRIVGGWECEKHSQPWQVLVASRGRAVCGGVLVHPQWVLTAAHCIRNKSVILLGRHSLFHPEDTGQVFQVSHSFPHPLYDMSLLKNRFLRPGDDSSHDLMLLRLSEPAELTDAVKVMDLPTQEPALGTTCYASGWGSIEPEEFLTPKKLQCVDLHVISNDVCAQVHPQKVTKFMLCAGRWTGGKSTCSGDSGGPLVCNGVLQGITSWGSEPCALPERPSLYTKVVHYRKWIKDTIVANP

Compound: CC1(C)C(=O)N(c2ccc(C#N)c(C(F)(F)F)c2)C(=S)N1CCCCCn1cc(COCCOCCOC(=O)CC23CC4CC(CC(C4)C2)C3)nn1
- IC50 (MCF7): 50.5 µM
- Activity [1]: 85.3%
- IC50 (LNCaP C4-2B): 16.6 µM
- IC50 (SGC-7901): 6.93 µM
- Activity (LNCaP [2]): 59.3%
- Activity (LNCaP [3]): 16.11%
- Activity (LNCaP [4]): 6.4%
- Activity (LNCaP [5]): 0.774%
- Activity (LNCaP [6]): 1.56%
- Activity (LNCaP [7]): 0.774%
- Activity (LNCaP [8]): 1.59%
- Activity (LNCaP [9]): 96.1%
- Activity (LNCaP [10]): 1.56%
- Activity (LNCaP [11]): 0.024%
- Activity [12]: Active
- Activity [13]: Active
- Activity [14]: Active
- Activity [15]: Active
- Activity [16]: Active
- Activity [17]: Active
- Activity [18]: Active
- Activity (LNCaP [19]): 19.22%
- Activity [20]: Active
- Activity [21]: Active
